The text below walks through data of patent publication US9487511B2, “Cyclopropanamine compound and use thereof” (Takeda Pharmaceutical Company Limited, priority 2014, dated 2016).

Data set [1] can be described thus: Evaluation of blood cell number in mouse. It counts as in vivo. As to conditions: male ICR mice, oral, repeated 7 or 9 days, dihydrochloride. The procedure: All compounds were repeatedly administered to the mice at a dose of 1 mg/kg, 10 mg/kg or 100 mg/kg (body weight) for 7 or 9 days. One day after the final administration of the compound, the whole blood was collected.
Using Sysmex XT-1800i (Sysmex Corporation), the white blood cell number, red blood cell number, and platelet number in the collected whole blood per unit volume were measured. The influence of each compound on each blood cell number was determined by calculating the number with the mean of each blood cell number of the mouse without administration of the compound (0 mg/kg group), and the mean of each blood cell number in the whole blood of a mouse with the administration of the compound.

A short description of data set [2]: Evaluation of hippocampal distribution in mouse. Type of data set: in vivo. As to conditions: male, ICR, mouse, po, 10 mg/kg, male ICR mice, 10 mg/kg oral, 1 h after administration.
The target in a further data set is MAO-B enzyme (Homo sapiens (Human), UniProt P27338). The data set is described as follows: Measurement of MAO-B inhibitory activity (MAO-Glo Assay). It counts as biochemical.
Sequence of MAO-B enzyme (P27338 whole entry): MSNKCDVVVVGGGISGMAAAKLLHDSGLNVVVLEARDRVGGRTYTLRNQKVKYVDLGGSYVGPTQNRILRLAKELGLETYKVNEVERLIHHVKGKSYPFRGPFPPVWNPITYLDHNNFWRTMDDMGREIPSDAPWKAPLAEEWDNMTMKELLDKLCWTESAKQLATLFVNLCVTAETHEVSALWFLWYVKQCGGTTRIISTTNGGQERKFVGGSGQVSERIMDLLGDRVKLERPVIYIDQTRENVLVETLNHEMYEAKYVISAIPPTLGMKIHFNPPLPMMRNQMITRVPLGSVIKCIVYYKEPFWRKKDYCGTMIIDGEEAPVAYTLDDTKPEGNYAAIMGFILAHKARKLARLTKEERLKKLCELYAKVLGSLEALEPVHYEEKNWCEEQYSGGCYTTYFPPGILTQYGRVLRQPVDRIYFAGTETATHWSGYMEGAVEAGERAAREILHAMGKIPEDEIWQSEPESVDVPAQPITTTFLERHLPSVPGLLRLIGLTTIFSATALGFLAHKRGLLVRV
For the next data set, the target named is human LSD1(172-833) (Homo sapiens (Human), UniProt O60341). The data set is described as follows: Measurement of LSD1 inhibitory activity (time-resolved fluorescence, biotin-histone H3 mono methylated K4 peptide).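 Note: after the compound–enzyme step, substrate reaction 5 min at room temperature in Tris-HCl pH 8.0 with BSA and DTT, halted by 2-PCPA, detected with europium anti-histone H3 antibody plus Streptavidin-XL665.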 It counts as biochemical. As to conditions: 60 min preincubation with enzyme at room temperature.
Another data set concerns the target MAO-A enzyme (Homo sapiens (Human), UniProt P21397). The data set is described as follows: Measurement of MAO-A inhibitory activity (MAO-Glo Assay). It counts as biochemical.

One may read the IC50 as the concentration needed to halve the response being measured.

Structures are written as SMILES. Structures can show the parent of a compound that is named as a salt. Where two headings read alike, the source gives them in different places.

Sequence of MAO-A enzyme (P21397 whole entry): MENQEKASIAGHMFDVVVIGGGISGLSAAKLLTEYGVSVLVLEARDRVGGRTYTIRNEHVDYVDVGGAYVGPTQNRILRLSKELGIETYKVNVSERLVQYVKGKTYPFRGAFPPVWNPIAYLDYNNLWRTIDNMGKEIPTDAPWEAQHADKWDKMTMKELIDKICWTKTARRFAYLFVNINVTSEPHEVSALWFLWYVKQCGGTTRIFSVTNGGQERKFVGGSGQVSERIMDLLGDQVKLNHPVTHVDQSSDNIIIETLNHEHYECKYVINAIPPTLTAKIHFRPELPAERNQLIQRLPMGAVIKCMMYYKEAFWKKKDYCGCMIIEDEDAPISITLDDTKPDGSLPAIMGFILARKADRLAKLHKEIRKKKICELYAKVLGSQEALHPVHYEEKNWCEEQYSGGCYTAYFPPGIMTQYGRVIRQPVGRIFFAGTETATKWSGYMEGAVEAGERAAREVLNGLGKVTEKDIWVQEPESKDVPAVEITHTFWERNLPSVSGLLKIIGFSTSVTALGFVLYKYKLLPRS
Method for MAO-A enzyme: The MAO-A inhibitory activity evaluation described below followed the protocol of MAO-Glo (registered trademark) Assay of Promega KK.
A test compound dissolved in DMSO was added to a reaction solution (100 mM HEPES (pH 7.5), 5% glycerol) containing MAO-A enzyme (Sigma-Aldrich Co. LLC.), and the mixture was reacted at room temperature for 15 min. MAO substrate (Promega KK) was added to start the reaction. After reaction at room temperature for 60 min, Luciferine detection reagent (Promega KK) was added to terminate the reaction. After reaction at room temperature for 20 min with stirring, the luminescence was measured by Envision (PerkinElmer). The MAO-A inhibitory rate (%) of the test compound was calculated by the following formula. inhibitory rate (%)=(1−(test compound count−blank)÷(control−blank))×100
The count of the MAO-A enzyme reaction mixture under compound non-addition conditions is indicated as control, and the count under compound non-addition and MAO-A enzyme non-addition conditions is indicated as blank.
Method for MAO-B enzyme: The MAO-B inhibitory activity evaluation described below followed the protocol of MAO-Glo (registered trademark) Assay of Promega KK.
A test compound dissolved in DMSO was added to a reaction solution (100 mM HEPES (pH 7.5), 5% glycerol, 10% DMSO) containing MAO-B enzyme (Sigma-Aldrich Co. LLC.), and the mixture was reacted at room temperature for 15 min. MAO substrate (Promega KK) was added to start the reaction. After reaction at room temperature for 60 min, Luciferine detection reagent (Promega KK) (50 μL) was added to terminate the reaction. After reaction at room temperature for 20 min with stirring, the luminescence was measured by Envision (PerkinElmer). The MAO-B inhibitory rate (%) of the test compound was calculated by the following formula. inhibitory rate (%)=(1−(test compound count−blank)÷(control−blank))×100
The count of the MAO-B enzyme reaction mixture under compound non-addition conditions is indicated as control, and the count under compound non-addition and MAO-B enzyme non-addition conditions is indicated as blank.
Method for human LSD1(172-833): A test compound dissolved in DMSO was added by to a reaction solution (50 mM Tris-HCl (pH 8.0), 0.1% BSA, 1 mM DTT) containing LSD1 enzyme, and the mixture was reacted at room temperature for 60 min. […] After reaction at room temperature for 5 min, 2-PCPA solution was added to terminate the reaction. A detection solution (800 mM potassium fluoride, 0.1% BSA) containing europium-labeled anti-histone H3 antibody (Wako Pure Chemical Industries, Ltd.) and Streptavidin-XL665 (Cisbio) was further added, and the mixture was left standing for 60 min. […] The LSD1 inhibitory rate (%) of the test compound was calculated by the following formula. inhibitory rate (%)=(1−(test compound count−blank)÷(control−blank))×100
The count of the LSD1 enzyme reaction mixture under compound non-addition conditions is indicated as control, and the count under compound non-addition and LSD1 enzyme non-addition conditions is indicated as blank. A concentration necessary for achieving 50% inhibitory rate was taken as ICH value.

Consider `Cc1nnc(NC(=O)c2cc([C@@H]3C[C@H]3NC3CCC3)cs2)s1` [Example 84, 4-((1S,2R)-2-(cyclobutylamino)cyclopropyl)-N-(5-methyl-1,3,4-thiadiazol-2-yl)thiophene-2-carboxamide dihydrochloride], for which the “Platelets, Mean” value was 1533 10^3 cells in data set [1] (1 mg/kg), 1627 10^3 cells in data set [1] (10 mg/kg) and 1665 10^3 cells in data set [1] (100 mg/kg). For the same molecule, the entries for the “Red blood cells, Mean” value in data set [1] (1 mg/kg), in data set [1] (10 mg/kg) and in data set [1] (100 mg/kg) were 910 10^4 cells, 880 10^4 cells and 900 10^4 cells, respectively. Besides, the “White blood cells, Mean” value is 370 10 cells in data set [1] (1 mg/kg), 339 10 cells in data set [1] (10 mg/kg) and 313 10 cells in data set [1] (100 mg/kg). The concentration at 1 h in data set [2] (hippocampus, read-out: Concentration Hippocampus, Mean) came to 177 ng/g; in data set [2] (plasma, read-out: Concentration Plasma, Mean), 523 ng/mL. Moreover, in data set [2] (hippocampus/plasma, read-out: Ratio (hippocampus/plasma), Mean), the Kp at 1 h was 0.339.
For `O=C(NC1CCC(F)(F)CC1)c1csc([C@@H]2C[C@H]2NCC2CC2)c1` (relative stereo) [Example 30, 5-(trans-2-((cyclopropylmethyl)amino)cyclopropyl)-N-(4,4-difluorocyclohexyl)thiophene-3-carboxamide hydrochloride], the IC50 is over 100 µM against MAO-B enzyme, under 0.1 µM at human LSD1(172-833) and over 100 µM at MAO-A enzyme.
`Cc1nnc(NC(=O)c2csc(C3CC3NCC3CCOCC3)c2)s1` (single isomer, unassigned) [Example 40, dihydrochloride]: the IC50 on MAO-B enzyme was over 100 µM; against human LSD1(172-833) it was under 0.1 µM; against MAO-A enzyme (dihydrochloride), over 100 µM.
Take `Cc1nnc(NC(=O)c2cc([C@@H]3C[C@H]3NCC3CCOCC3)cc3ccccc23)s1` (relative stereo) [Example 16, N-(5-methyl-1,3,4-thiadiazol-2-yl)-3-(trans-2-((tetrahydro-2H-pyran-4-ylmethyl)amino)cyclopropyl)-1-naphthamide dihydrochloride]: the IC50 at MAO-B enzyme is over 100 µM; at human LSD1(172-833), under 0.1 µM; at MAO-A enzyme it was over 100 µM.
`Cc1sc([C@@H]2C[C@H]2NCC2CC2)cc1C(=O)NC1CCC(F)(F)CC1` (relative stereo) [Example 65, 5-(trans-2-((cyclopropylmethyl)amino)cyclopropyl)-N-(4,4-difluorocyclohexyl)-2-methylthiophene-3-carboxamide hydrochloride]: the values for the IC50 against MAO-B enzyme, against human LSD1(172-833) and against MAO-A enzyme were over 100 µM, under 0.1 µM and 25 µM, respectively.
Turning to `Cc1cc(NC(=O)c2csc([C@@H]3C[C@H]3NCC3CCOCC3)c2)no1` [Example 81, N-(5-methyl-1,2-oxazol-3-yl)-5-((1R,2R)-2-((tetrahydro-2H-pyran-4-ylmethyl)amino)cyclopropyl)thiophene-3-carboxamide hydrochloride], the IC50 at MAO-B enzyme was over 100 µM; at human LSD1(172-833), under 0.1 µM; at MAO-A enzyme, 36 µM.
For `O=C(NC1CCC(F)(F)CC1)c1csc([C@@H]2C[C@H]2NC2CCOCC2)c1` [Example 44, N-(4,4-difluorocyclohexyl)-5-((1R,2R)-2-(tetrahydro-2H-pyran-4-ylamino)cyclopropyl)thiophene-3-carboxamide hydrochloride], the IC50 on MAO-B enzyme was 100 µM; against human LSD1(172-833), under 0.1 µM; against MAO-A enzyme, over 100 µM.
With `N[C@H]1CC[C@H](N[C@@H]2C[C@H]2c2cc(C(=O)NC3CCC(F)(F)CC3)cs2)CC1` [Example 46, 5-((1R,2R)-2-(trans-(4-aminocyclohexyl)amino)cyclopropyl)-N-(4,4-difluorocyclohexyl)thiophene-3-carboxamide dihydrochloride], the half-maximal inhibitory concentration (IC50) against MAO-B enzyme was over 100 µM; on human LSD1(172-833) it was under 0.1 µM; on MAO-A enzyme, over 100 µM.
As for `O=C(O)c1ccc(CN[C@@H]2C[C@H]2c2cc(C(=O)NC3CCC(F)(F)CC3)cs2)cc1` [Example 110, 4-((((1R,2R)-2-(4-((4,4-difluorocyclohexyl)carbamoyl)-2-thienyl)cyclopropyl)amino)methyl)benzoic acid], the IC50 at MAO-B enzyme was over 100 µM; at human LSD1(172-833), under 0.1 µM; against MAO-A enzyme, 49 µM.
Regarding `O=C(NC1CC1)c1csc([C@@H]2C[C@H]2NCC2CCOCC2)c1` [Example 56, N-cyclopropyl-5-((1R,2R)-2-((tetrahydro-2H-pyran-4-ylmethyl)amino)cyclopropyl)thiophene-3-carboxamide hydrochloride], the IC50 on MAO-B enzyme was over 100 µM; at human LSD1(172-833), under 0.1 µM; against MAO-A enzyme, over 100 µM.
As for `O=C(NC1CCC(F)(F)CC1)c1csc([C@@H]2C[C@H]2NC2CCOCC2)c1` (relative stereo) [Example 31, N-(4,4-difluorocyclohexyl)-5-(trans-2-(tetrahydro-2H-pyran-4-ylamino)cyclopropyl)thiophene-3-carboxamide hydrochloride], the IC50 is over 100 µM at MAO-B enzyme, under 0.1 µM at human LSD1(172-833) and over 100 µM at MAO-A enzyme.
`O=C(NC1CCN(CC(F)(F)F)CC1)c1csc([C@@H]2C[C@H]2NCC2CCOCC2)c1` [Example 52, 5-((1R,2R)-2-((tetrahydro-2H-pyran-4-ylmethyl)amino)cyclopropyl)-N-(1-(2,2,2-trifluoroethyl)piperidin-4-yl)thiophene-3-carboxamide hydrochloride]: the IC50 on MAO-B enzyme is over 100 µM; on human LSD1(172-833) it was under 0.1 µM; against MAO-A enzyme, over 100 µM.
As for `Cc1nnc(NC(=O)c2cc([C@@H]3C[C@H]3NCC3CC3)sc2C)s1` (relative stereo) [Example 69, 5-(trans-2-((cyclopropylmethyl)amino)cyclopropyl)-2-methyl-N-(5-methyl-1,3,4-thiadiazol-2-yl)thiophene-3-carboxamide dihydrochloride], the results for the IC50 against MAO-B enzyme, against human LSD1(172-833) and against MAO-A enzyme were over 100 µM, under 0.1 µM and 33 µM, respectively.
For `O=C(NC1CCCC1)c1csc(C2CC2NC2CCOCC2)c1` (single isomer, unassigned) [Example 39], the results for the IC50 at MAO-B enzyme, against human LSD1(172-833) and against MAO-A enzyme were over 100 µM, under 0.1 µM and 23 µM, respectively.
Consider `O=C(NC1CCCC1)c1csc(C2CC2NC2CCOCC2)c1` (single isomer, unassigned) [Example 38, hydrochloride], for which the IC50 was over 100 µM at MAO-B enzyme, under 0.1 µM against human LSD1(172-833) and over 100 µM against MAO-A enzyme.
`O=C(O)c1ccc(CN2CCC(CN[C@@H]3C[C@H]3c3cc(C(=O)NC4CCC(F)(F)CC4)cs3)CC2)cc1` [Example 101, 4-((4-((((1R,2R)-2-(4-((4,4-difluorocyclohexyl)carbamoyl)-2-thienyl)cyclopropyl)amino)methyl)piperidin-1-yl)methyl)benzoic acid dihydrochloride]: the concentration for half-maximal inhibition (IC50) against MAO-B enzyme was over 100 µM; against human LSD1(172-833), under 0.1 µM; against MAO-A enzyme, over 100 µM.
Regarding `CC(=O)N1CCC(N[C@@H]2C[C@H]2c2cc(C(=O)NC3CCC(F)(F)CC3)cs2)CC1` [Example 91, 5-((1R,2R)-2-((1-acetylpiperidin-4-yl)amino)cyclopropyl)-N-(4,4-difluorocyclohexyl)thiophene-3-carboxamide hydrochloride], the IC50 against MAO-B enzyme was over 100 µM; against human LSD1(172-833) it was under 0.1 µM; on MAO-A enzyme it was over 100 µM.
Consider `CCn1cc(NC(=O)c2csc([C@@H]3C[C@H]3NCC3CCOCC3)c2)cn1` [Example 86, N-(1-ethyl-1H-pyrazol-4-yl)-5-((1R,2R)-2-((tetrahydro-2H-pyran-4-ylmethyl)amino)cyclopropyl)thiophene-3-carboxamide dihydrochloride], for which the values for the IC50 on MAO-B enzyme, at human LSD1(172-833) and at MAO-A enzyme were over 100 µM, under 0.1 µM and 87 µM, respectively.
For `Cc1nnc(NC(=O)c2cc([C@H]3C[C@@H]3NCC3CCOCC3)cs2)s1` [Example 74, N-(5-methyl-1,3,4-thiadiazol-2-yl)-4-((1R,2S)-2-((tetrahydro-2H-pyran-4-ylmethyl)amino)cyclopropyl)thiophene-2-carboxamide hydrochloride] the same measures were over 100 µM, under 0.1 µM and over 100 µM.
For the molecule `O=C(NC1CCOCC1)c1csc([C@@H]2C[C@H]2NCC2CCC2)c1` [Example 112, 5-((1R,2R)-2-((cyclobutylmethyl)amino)cyclopropyl)-N-(tetrahydro-2H-pyran-4-yl)thiophene-3-carboxamide], the IC50 is over 100 µM on MAO-B enzyme, under 0.1 µM against human LSD1(172-833) and over 100 µM against MAO-A enzyme.
Turning to `Cc1ncc(NC(=O)c2csc([C@@H]3C[C@H]3NC3CCOCC3)c2)s1` [Example 50, N-(2-methyl-1,3-thiazol-5-yl)-5-((1R,2R)-2-(tetrahydro-2H-pyran-4-ylamino)cyclopropyl)thiophene-3-carboxamide hydrochloride], the results for the IC50 on MAO-B enzyme, against human LSD1(172-833) and at MAO-A enzyme were over 100 µM, under 0.1 µM and over 100 µM, respectively.
